Source: article PMC9793460, “Food effect risk assessment in preformulation stage using material sparing μFLUX methodology” (ADMET & DMPK, 2022)
Structures can show the parent of a compound that is named as a salt. Where two headings read alike, the source gives them in different places. Marks after values point to notes of the source that are not given here.

How the values were obtained:
[1] = cited from earlier work; for FE (food effect observed in clinic): assigned from AUC and Cmax ratios of published clinical data; for Observed AUC Ratio (Fed/Fasted) / Observed Cmax Ratio (Fed/Fasted): ratio of geometric means fed/fasted, published clinical data
[2] = μFLUX dissolution/flux test, FaSSIF or FeSSIF donor, acceptor sink buffer receiver; assay type: in vitro ADME; conditions: for Flux Fa (±SD; n=3) / Flux Fe (±SD; n=3): unformulated powder, initial flux excluding lag time, 37 °C; for Flux Ratios (Fed/Fasted): FeSSIF/FaSSIF; for Food effect indicated by flux ratio: prediction from FeSSIF/FaSSIF flux ratio
Procedure: Dissolution/flux tests were performed using a μFLUX apparatus (Pion Inc., Billerica, MA, USA) with 4 side-by-side donor-receiver chambers separated by a lipophilic barrier. Prior to the assay, the artificial GIT-mimicking membrane was prepared by impregnating a PVDF filter support material (polyvinylidenfluoride, 1.54 cm^2 open area, 0.45 μm pore size, 120 μm thickness, 70 % nominal porosity) with 25 μL of 20 % lecithin in dodecane lipid solution (GIT Lipid, Pion Inc., Billerica, MA, USA). The donor chambers were then filled with 20 ml of biorelevant media (FaSSIF or FeSSIF) while the receiver compartments were filled with 20 ml of acceptor sink buffer (ASB, Pion Inc., Billerica, MA, USA). The ASB is a HEPES (4-(2-hydroxyethyl)-1-piperazineethanesulfonic acid) based pH 7.4 buffer containing chemical scavengers (surfactants micelles) that allow to maintain sink conditions during the experiments. The composition of the membrane and the receiver solution are identical to the Double-Sink PAMPA model, a non-cell-based method predicting of passive transcellular intestinal absorption. The temperature in both chambers was maintained at 37 °C and the media were stirred at 100 rpm.
Model compounds were added at the start of the experiment in the donor chambers as unformulated powder at a solid load equivalent to the lowest marketed dose normalized to 250 mL stomach volume. In some cases, to counter for experimental limitation due to low signal detection or high turbidity, a higher or lower dose was selected.
Standards for each model compound were prepared by sequential addition of a stock solution of pure API pre-dissolved in organic solvents (either methanol or DMSO) to the corresponding medium. The area under the 2nd derivative spectra curves was used to calculate the concentrations. The wavelength range was selected individually for each compound in the way to avoid sensitivity issues. […] The drug concentration in the donor and receiver chambers was calculated from the UV absorbance of the samples using the corresponding standard curve. For samples with low permeability, an additional μFLUX donor-receiver pair containing described reagents except API was included in parallels and used as a corrective “blank” at the corresponding time point to ensure that the UV signal of API could be differentiated from the spectral noise of the biorelevant media. Concentration-time profiles were monitored over at least 180 min, in triplicate for each drug unless otherwise mentioned.
The flux (J) across the membrane representing the amount (m) of material crossing one unit area (A) of the membrane per unit time (t), was calculated from the concentration-time profiles in the receiver compartments:
A is the area of the membrane (1.54 cm^2), V is the volume of the receiver compartment (20 mL) and dc/dt (μg mL^-1 min^-1) is the slope of the concentration time profile of the drug in the receiver compartment.
The flux values were calculated by fitting the concentration-time profile in the receivers to a straight line to determine the slope and then normalizing the slope to the volume and surface area of the membrane following equation (1). Time intervals to calculate the flux were selected based on the apparent linearity of the concentration-time profile in the receivers, capturing the initial flux process and excluding the lag time unless otherwise is stated.

[3] = cited from earlier work; for pKa: experimental, higher pKa where two are given; for Type: ionization type
[4] = Solubility in biorelevant media (FaSSIF / FeSSIF); assay type: physicochemical; conditions: for Solubility ratio (Fed/Fasted): FeSSIF/FaSSIF, calculated from Table 2 solubilities; for Food effect indicated by solubility ratio: prediction from FeSSIF/FaSSIF solubility ratio
Procedure: Solubility measurements were performed by adding an excess amount of drug into FaSSIF or FeSSIF media in a glass vial. […] After equilibration, samples were centrifuged/filtered using NANOSEP with 0.2 μm Bio-inert centrifugal devices (PAL Corporation). The filtrate was immediately diluted accordingly into acetonitrile/water 50/50 and analyzed by HPLC.
Model drugs categorized as BCS I - IV classes were selected. The drugs included mono- and diprotic acids and bases as well as non-ionizable compounds. […] The physicochemical properties of the model compounds, pKa, log P [18, 19] and solubility in biorelevant media [[20-26]] were collected from the literature and are depicted in Table 2.

[5] = cited from earlier work; for Solubility FeSSIF (pH 5.0) / Solubility FaSSIF (pH 6.5): some values determined in the authors' lab (not marked)
[6] = μFLUX dissolution/flux test, FaSSIF or FeSSIF donor, acceptor sink buffer receiver; assay type: in vitro ADME; conditions: 0.4 mg/mL
[7] = experimental; cited from earlier work

| Compound | Flux Fa (±SD; n=3) ([2]; FaSSIF donor) | Flux Fe (±SD; n=3) ([2]; FeSSIF donor) | Solubility ratio (Fed/Fasted) [4] | Food effect indicated by solubility ratio [4] | Flux Ratios (Fed/Fasted) [2] | Food effect indicated by flux ratio [2] | FE (food effect observed in clinic) [1] | Observed AUC Ratio (Fed/Fasted) [1] | Observed Cmax Ratio (Fed/Fasted) [1] | Solubility FeSSIF (pH 5.0) [5] | Solubility FaSSIF (pH 6.5) [5] | further results |
| --- | --- | --- | --- | --- | --- | --- | --- | --- | --- | --- | --- | --- |
| NS(=O)(=O)c1cc(C(=O)O)c(NCc2ccco2)cc1Cl [Furosemide, furosemide] | 0.018 ± 0.003 | 0.208 ± 0.036 | – | – | – | – | negative | – | – | – | – | FE (food effect observed in clinic) ([1]; listed as furosemide): negative food effect; fraction of drug deprotonated ([3]; pH 5.0, species distribution curve): ~ 97% |
| Cc1ccc(-c2cc(C(F)(F)F)nn2-c2ccc(S(N)(=O)=O)cc2)cc1 [Celecoxib, celecoxib] | 0.186 ± 0.021 | 0.632 ± 0.077 | 2.24 | positive food effect | 3.4 | positive food effect | positive | 1.19 | 1.29 | 103.3 μg/mL | – | FE (food effect observed in clinic) ([1]; listed as celecoxib): positive food effect; pKa [3]: 9.38 ± 0.08^a |
| CCCCc1oc2ccccc2c1C(=O)c1cc(I)c(OCCN(CC)CC)c(I)c1 [Amiodarone, Amiodarone hydrochloride] | – | – | – | – | – | – | positive food effect | – | – | – | – | Flux Fa (±SD; n=3), early ([2]; FaSSIF donor, early flux, first 2 hours excluding lag time): 0.017± 0.003; Flux Fa (±SD; n=3), late ([2]; FaSSIF donor, late flux, 2.5-9 hours interval): 0.579 ± 0.095; Flux Fe (±SD; n=3), early ([2]; FeSSIF donor, early flux, first 2 hours excluding lag time): 0.073 ± 0.001; Flux Fe (±SD; n=3), late ([2]; FeSSIF donor, late flux, 2.5-9 hours interval): 1.277± 0.109 |
| C#C[C@]1(O)CC[C@H]2[C@@H]3CCC4=Cc5oncc5C[C@]4(C)[C@H]3CC[C@@]21C [Danazol, danazol] | – | – | – | – | – | – | – | – | – | – | – | Type [3]: N |
| COC1=CC(=O)C[C@@H](C)[C@]12Oc1c(Cl)c(OC)cc(OC)c1C2=O [Griseofulvin] | 0.205 ± 0.011 | 0.218 ± 0.009 | – | – | – | – | – | – | – | 29.2 μg/mL | 23.4 μg/mL | Type [3]: N; log P [7]: 2.2 |
| COC(=O)[C@H](c1ccccc1Cl)N1CCc2sccc2C1 [Clopidogrel bisulfate, clopidogrel bisulfate] | 1.751 ± 0.540 | 2.168 ± 0.323 | 3.85 | positive food effect | 1.24 | no food effect | none | 1.02 | 0.79 | 500 μg/mL | 130 μg/mL | FE (food effect observed in clinic) ([1]; listed as clopidogrel bisulfate): no food effect |
| CNCCC(Oc1ccc(C(F)(F)F)cc1)c1ccccc1 (centres unmarked) [Fluoxetine HCl, fluoxetine hydrochloride] | – | – | – | – | – | – | none | – | – | – | – | FE (food effect observed in clinic) ([1]; listed as FXT): not influenced by presence or absence of food |

Second part, led by results:

| Flux Fa (±SD; n=3) ([2]; FaSSIF donor) | Flux Fe (±SD; n=3) ([2]; FeSSIF donor) | Solubility ratio (Fed/Fasted) [4] | Food effect indicated by solubility ratio [4] | Flux Ratios (Fed/Fasted) [2] | Food effect indicated by flux ratio [2] | Compound | FE (food effect observed in clinic) [1] | Observed AUC Ratio (Fed/Fasted) [1] | Observed Cmax Ratio (Fed/Fasted) [1] | Solubility FeSSIF (pH 5.0) [5] | Solubility FaSSIF (pH 6.5) [5] | further results |
| --- | --- | --- | --- | --- | --- | --- | --- | --- | --- | --- | --- | --- |
| 0.521 ± 0.179 | 1.077 ± 0.084 | 1.52 | positive food effect | 2.07 | negative food effect | CCc1nn(CCCN2CCN(c3cccc(Cl)c3)CC2)c(=O)n1CCOc1ccccc1 [Nefazodone HCl, nefazodone hydrochloride] | negative food effect | 0.78 | 0.93 | 383 μg/mL | 252 μg/mL | Flux Fa (±SD; n=3), suspension ([6]; FaSSIF donor, sample introduced as slurry of DS in the medium): 2.610 ± 0.618; Flux Fe (±SD; n=3), suspension ([6]; FeSSIF donor, sample introduced as slurry of DS in the medium): 1.923 ± 0.547; Flux Ratios (Fed/Fasted), suspension ([6]; FeSSIF/FaSSIF, sample introduced as slurry): 0.74 |
| 0.037 ± 0.007 | 0.034 ± 0.002 | – | – | – | – | Cc1cn([C@H]2C[C@H](N=[N+]=[N-])[C@@H](CO)O2)c(=O)[nH]c1=O [Zidovudine, zidovudine] | negative food effect | – | – | – | – | pKa [3]: 9.40 ± 0.01^a; log P [7]: 0.13 |
| 0.020 ± 0 | 0.020 ± 0 | – | – | – | – | NNC(=O)c1ccncc1 [Isoniazid, isoniazid] | negative food effect | 0.88 | 0.49 | > 60,000 μg/mL | > 60,000 μg/mL | Solubility in FaSSIF ([5]; FaSSIF): > 60 mg/mL; Solubility in FeSSIF ([5]; FeSSIF): > 60 mg/mL |
